In patent publication US20080166805A1, “Culturing human cells and tissues in an N-glycolylneuraminic acid-free environment” (The Regents of the University of California, priority 2005, published 2008):

Legend:
[1] = system: lysosomal sialic acid transporter mutant human fibroblasts (GM05520); assay: Neu5Gc/ManNGc feeding, lysosomal sialic acid transporter mutant fibroblasts GM05520; type: cell-based; details: GM05520 (ISSD) fibroblasts fed 3 mM for 3 days
Excerpt: (§1) Cell Lines—Caco-2 cells (human epithelial cells isolated from a primary colon carcinoma), normal human skin fibroblasts (CCD-919-SK) and chinese hamster ovary (CHO-K1) cells were purchased from ATCC (Manassas, Va.) Mutant human skin fibroblasts (GM05520, GM08496 and GM01718) were obtained from the Coriell Institute for Medical Research (Camden, N.J.) Chimpanzee Fred and human […] EBV-transformed lymphoblasts were a gift from Dr. Peter Parham, Stanford University, CA. […]
(§2) Fractionation of the Labeled Cells—Washed cell pellets were sonicated into 500 μL of 20 mM sodium phosphate buffer or 20 mM Tris-HCl, pH 7.5, using 4×15 second pulses of a sonicator cell disrupter, model Some Dismembrator (Fisher Scientific, Hampton, N.J.) at a probe setting of 3. […] The pellet contained <5% of the incorporated sialic acid as determined using a radioactive tracer (data not shown.) The supernatant was therefore considered as the “total homogenate” fraction. A portion (20%) of the “total homogenate” fraction was taken for protein quantification and Sia analysis by DMB derivatization and HPLC analysis (as discussed below.) The remainder was centrifuged at 100,000×g for 1 h. […] All the Sias in these fractions were released with mild acid hydrolysis if necessary and then analyzed by HPLC after DMB derivatization. […]

[2] = system: normal human skin fibroblasts (WT); assay: Neu5Gc/ManNGc feeding experiment, normal human skin fibroblasts; type: cell-based
Description: (§3) Cell Culture—Caco-2 cells were propagated in alpha-MEM containing GLUTAMAX™ (Invitrogen, San Diego, Calif.) and a mixture of ribonucleosides and deoxyribonucleosides (Gibco/Invitrogen, San Diego, Calif.) supplemented with 20% FCS. All the fibroblast cell lines and CHO-K1 cells were cultured in the same media supplemented respectively with 15% non-heat inactivated FCS or 10% heat inactivated FCS. Chimpanzee Fred and human […] EBV-transformed lymphoblasts were cultured in RPMI-1640 (Gibco/Invitrogen, San Diego, Calif.) supplemented with 10% heat inactivated FCS or 15% human serum. All of the cultures were maintained at 37° C., 5% CO2 atmosphere. In order to deplete any remaining Neu5Gc from FCS, the cells were split and cultured prior to Neu5Gc feeding experiments for at least 4 days in alpha-MEM supplemented with an adequate percentage of heat-inactivated premium human serum instead of FCS. The cells were then maintained under the same conditions during the whole feeding experiment. The human serum was heat inactivated at 56° C. for 30 min. before use.
(§4) Neu5Gc and ManNGc Feeding Experiment—Neu5Ac, Neu5Gc or ManNGc were dried, dissolved in the appropriate media supplemented with heat-inactivated human serum, sterilized using a Spin-X® (Corning Inc., Corning, N.Y.) and then added to the cells. The pH of the media containing Sia was adjusted to neutrality using sterilized 1M NaOH before starting the feeding experiment. Cells were cultured in the presence of up to 3 mM free Sia or ManNGc for 1 or 3 days at 37° C. At the end of the feeding, cells were washed with cold PBS, harvested either by scraping or with 2 mM EDTA for fibroblasts, and washed again with cold PBS prior to fractionation.
Fractionation of the Labeled Cells—Washed cell pellets were sonicated into 500 μL of 20 mM sodium phosphate buffer or 20 mM Tris-HCl, pH 7.5, using 4×15 second pulses of a sonicator cell disrupter, model Some Dismembrator (Fisher Scientific, Hampton, N.J.) at a probe setting of 3. The sonicate was centrifuged at 75×g for 15 min., and the pellet obtained consisted primarily of nuclei and unbroken cells. The pellet contained <5% of the incorporated sialic acid as determined using a radioactive tracer (data not shown.) The supernatant was therefore considered as the “total homogenate” fraction. A portion (20%) of the “total homogenate” fraction was taken for protein quantification and Sia analysis by DMB derivatization and HPLC analysis (as discussed below.) The remainder was centrifuged at 100,000×g for 1 h. The resulting pellet, called the “membrane” fraction, was then resuspended by sonication (15 sec.) in 200 μl of sodium acetate buffer, pH 5.5. The 100,000×g supernatant, called the “soluble” fraction was adjusted to 90% ethanol using absolute ice-cold ethanol, and placed overnight at −20° C. The flocculant precipitate, which represents the “soluble protein” fraction, was washed 3 times with 90% ice-cold ethanol and then resuspended in 200 μl of water. […] All the Sias in these fractions were released with mild acid hydrolysis if necessary and then analyzed by HPLC after DMB derivatization. Protein quantification was performed on the total homogenate, membrane and soluble protein fractions by using the BCA protein assay kit from Pierce (Rockford, Ill.) In some experiments, the resulting data obtained for the Sia bound to the membrane fraction and to the soluble proteins were pooled and presented here as a High Molecular Weight (HMW) fraction. […]

[3] = system: human LB EBV-transformed lymphoblasts; assay: Neu5Gc/Neu5Ac feeding experiment, human EBV-transformed lymphoblasts; type: cell-based; details: human lymphoblasts fed 3 mM for 3 days
Description: as §3
as §4, with “At the end of the feeding, cells were washed with cold PBS, harvested either by scraping or with 2 mM EDTA for fibroblasts, and washed again with cold PBS prior to fractionation.” left out
(§5) Fractionation of the Labeled Cells—Washed cell pellets were sonicated into 500 μL of 20 mM sodium phosphate buffer or 20 mM Tris-HCl, pH 7.5, using 4×15 second pulses of a sonicator cell disrupter, model Some Dismembrator (Fisher Scientific, Hampton, N.J.) at a probe setting of 3. […] The pellet contained <5% of the incorporated sialic acid as determined using a radioactive tracer (data not shown.) The supernatant was therefore considered as the “total homogenate” fraction. A portion (20%) of the “total homogenate” fraction was taken for protein quantification and Sia analysis by DMB derivatization and HPLC analysis (as discussed below.) The remainder was centrifuged at 100,000×g for 1 h. […] All the Sias in these fractions were released with mild acid hydrolysis if necessary and then analyzed by HPLC after DMB derivatization. Protein quantification was performed on the total homogenate, membrane and soluble protein fractions by using the BCA protein assay kit from Pierce (Rockford, Ill.) In some experiments, the resulting data obtained for the Sia bound to the membrane fraction and to the soluble proteins were pooled and presented here as a High Molecular Weight (HMW) fraction. […]

chimpanzee lymphoblasts = assay: Neu5Gc/Neu5Ac feeding experiment, chimpanzee EBV-transformed lymphoblasts; type: cell-based; details: chimpanzee lymphoblasts fed 3 mM for 3 days
Description: as §3
as §4, with “At the end of the feeding, cells were washed with cold PBS, harvested either by scraping or with 2 mM EDTA for fibroblasts, and washed again with cold PBS prior to fractionation.” left out
as §5

Caco-2 cells [4] = assay: Neu5Gc and ManNGc feeding experiment, Caco-2 cells (fractionation, DMB-HPLC); type: cell-based; details: Caco-2 cells fed 3 mM for 3 days, grown in human serum
Description: as §3, with “use. […]” for “use.”
as §2

Caco-2 cells [5] = assay: Endocytosis inhibition experiments (Neu5Gc uptake in Caco-2 cells); type: cell-based, human; details: 3 mM Neu5Gc, no inhibitor
Description: The sonicate was centrifuged at 75×g for 15 min., and the pellet obtained consisted primarily of nuclei and unbroken cells. […] A portion (20%) of the “total homogenate” fraction was taken for protein quantification and Sia analysis by DMB derivatization and HPLC analysis (as discussed below.) The remainder was centrifuged at 100,000×g for 1 h. The resulting pellet, called the “membrane” fraction, was then resuspended by sonication (15 sec.) in 200 μl of sodium acetate buffer, pH 5.5. The 100,000×g supernatant, called the “soluble” fraction was adjusted to 90% ethanol using absolute ice-cold ethanol, and placed overnight at −20° C. The flocculant precipitate, which represents the “soluble protein” fraction, was washed 3 times with 90% ice-cold ethanol and then resuspended in 200 μl of water. The supernatant fluid representing the cytosolic low molecular weight (LMW) fraction was dried and brought up in 100 μL with water prior to Sia analysis. All the Sias in these fractions were released with mild acid hydrolysis if necessary and then analyzed by HPLC after DMB derivatization. Protein quantification was performed on the total homogenate, membrane and soluble protein fractions by using the BCA protein assay kit from Pierce (Rockford, Ill.) In some experiments, the resulting data obtained for the Sia bound to the membrane fraction and to the soluble proteins were pooled and presented here as a High Molecular Weight (HMW) fraction. Sialic Acid Release, DMB Derivatization and HPLC Analysis—The bound Sias from the total homogenate, membrane and soluble protein fractions were released using 2M acetic acid hydrolysis, 3 h. at 80° C. The released Sias, or free Sias, contained in the soluble LMW fraction were passed through a Microcon® YM-10 filter (Millipore, Bedford, Mass.) prior to DMB derivatization, which was done according to Hara et al., 1989. […] The eluant was monitored by fluorescence. Quantification of Sias—For all HPLC chromatograms, the quantification of Sias was done by comparison with known quantities of DMB derivatized Neu5Gc and Neu5Ac used as standards and then reported in terms of pmoles of Sia. For total homogenate, membrane and cytosolic protein fractions, this number was expressed per mg of protein. Due to minor sample-to-sample variations in amounts and recoveries, the data in the Figures is presented as percent of Neu5Gc over total Sias, rather than as absolute amounts. Endocytosis Inhibition Experiments—Caco-2 or normal fibroblast cells were split and cultured in alpha-MEM media supplemented respectively with 20% or 15% human serum for 4 days before starting the endocytosis drug inhibition experiments in order to deplete any Neu5Gc derived from FCS. Cells were then pre-treated for 2 h. with the specific inhibitors under the same culture conditions. Fresh media containing the same amount of inhibitor and 3 mM of Neu5Gc was then added to the cells, which were incubated for 16 h or 3 days and finally harvested and fractionated as described above.

[6] = system: lysosomal sialic acid transporter mutant human fibroblasts (GM08496); assay: Neu5Gc/ManNGc feeding, lysosomal sialic acid transporter mutant fibroblasts GM08496; type: cell-based; details: GM08496 (Salla disease) fibroblasts fed 3 mM for 3 days
Excerpt: as §1, §2

Caco-2 cells [7] = assay: Competition of free Neu5Ac with free Neu5Gc for incorporation into Caco-2 cells; type: cell-based, human; details: 3 mM Neu5Gc for 3 days
Description: as §4
Fractionation of the Labeled Cells—Washed cell pellets were sonicated into 500 μL of 20 mM sodium phosphate buffer or 20 mM Tris-HCl, pH 7.5, using 4×15 second pulses of a sonicator cell disrupter, model Some Dismembrator (Fisher Scientific, Hampton, N.J.) at a probe setting of 3. The sonicate was centrifuged at 75×g for 15 min., and the pellet obtained consisted primarily of nuclei and unbroken cells. The pellet contained <5% of the incorporated sialic acid as determined using a radioactive tracer (data not shown.) The supernatant was therefore considered as the “total homogenate” fraction. A portion (20%) of the “total homogenate” fraction was taken for protein quantification and Sia analysis by DMB derivatization and HPLC analysis (as discussed below.) The remainder was centrifuged at 100,000×g for 1 h. The resulting pellet, called the “membrane” fraction, was then resuspended by sonication (15 sec.) in 200 μl of sodium acetate buffer, pH 5.5. The 100,000×g supernatant, called the “soluble” fraction was adjusted to 90% ethanol using absolute ice-cold ethanol, and placed overnight at −20° C. The flocculant precipitate, which represents the “soluble protein” fraction, was washed 3 times with 90% ice-cold ethanol and then resuspended in 200 μl of water. The supernatant fluid representing the cytosolic low molecular weight (LMW) fraction was dried and brought up in 100 μL with water prior to Sia analysis. All the Sias in these fractions were released with mild acid hydrolysis if necessary and then analyzed by HPLC after DMB derivatization. Protein quantification was performed on the total homogenate, membrane and soluble protein fractions by using the BCA protein assay kit from Pierce (Rockford, Ill.) In some experiments, the resulting data obtained for the Sia bound to the membrane fraction and to the soluble proteins were pooled and presented here as a High Molecular Weight (HMW) fraction.
Sialic Acid Release, DMB Derivatization and HPLC Analysis—The bound Sias from the total homogenate, membrane and soluble protein fractions were released using 2M acetic acid hydrolysis, 3 h. at 80° C. The released Sias, or free Sias, contained in the soluble LMW fraction were passed through a Microcon® YM-10 filter (Millipore, Bedford, Mass.) prior to DMB derivatization, which was done according to Hara et al., 1989. DMB-Sia derivatives from the different fractions were then analyzed by HPLC using a C18 column (Microsorb Mv-TM 100 A, Varian, Palo Alto, Calif.) Isocratic elution was achieved using 7% methanol, 8% acetonitrile in water during 50 min. at 0.9 ml/min flow. The eluant was monitored by fluorescence.
Quantification of Sias—For all HPLC chromatograms, the quantification of Sias was done by comparison with known quantities of DMB derivatized Neu5Gc and Neu5Ac used as standards and then reported in terms of pmoles of Sia. For total homogenate, membrane and cytosolic protein fractions, this number was expressed per mg of protein. Due to minor sample-to-sample variations in amounts and recoveries, the data in the Figures is presented as percent of Neu5Gc over total Sias, rather than as absolute amounts.

[8] = system: human neuroblastoma cells; assay: Neu5Gc feeding experiment, human neuroblastoma cells; type: cell-based; details: neuroblastoma cells fed 3 mM for 3 days
Description: as §4
Fractionation of the Labeled Cells—Washed cell pellets were sonicated into 500 μL of 20 mM sodium phosphate buffer or 20 mM Tris-HCl, pH 7.5, using 4×15 second pulses of a sonicator cell disrupter, model Some Dismembrator (Fisher Scientific, Hampton, N.J.) at a probe setting of 3. […] The pellet contained <5% of the incorporated sialic acid as determined using a radioactive tracer (data not shown.) The supernatant was therefore considered as the “total homogenate” fraction. A portion (20%) of the “total homogenate” fraction was taken for protein quantification and Sia analysis by DMB derivatization and HPLC analysis (as discussed below.) The remainder was centrifuged at 100,000×g for 1 h. […]

[9] = normal fibroblasts fed 3 mM for 3 days

O=C(CO)N[C@H]1[C@H]([C@H](O)[C@H](O)CO)OC(O)(C(=O)O)C[C@@H]1O (stereo partly shown) [Neu5Gc, N-glycolylneuraminic acid]
percent of Neu5Gc in membrane-bound glycoconjugates [1]: 5%
Neu5Gc as percent of total Sia, HMW fraction [2, 9]: 39%
Neu5Gc as percent of total Sia, TH fraction [2, 9]: 28%
Neu5Gc as percent of total Sia, cytosolic LMW fraction [2, 9]: 41%
percent of Neu5Gc incorporation into membrane-bound glycoconjugates ([2]; normal wild-type (WT) fibroblasts fed 3 mM for 3 days): 37%
Neu5Gc as percent of total Sia, HMW fraction [3]: 51%
Neu5Gc as percent of total Sia, LMW cytosolic fraction [3]: 80%
Neu5Gc as percent of total Sia, TH fraction [3]: 67%
Neu5Gc as percent of total Sia, TH fraction (chimpanzee lymphoblasts; non-fed baseline 57%): 70%
Neu5Gc as percent of total Sia, HMW fraction (chimpanzee lymphoblasts; non-fed baseline 66%): 72%
Neu5Gc as percent of total Sia, LMW fraction (chimpanzee lymphoblasts; non-fed baseline 70%): 84%
Neu5Gc as percent of total Sia, cytosolic low molecular weight (LMW) fraction (Caco-2 cells [4]): 70%
Neu5Gc as percent of total Sia, high molecular weight fraction (HMW) (Caco-2 cells [4]): 46%
Neu5Gc as percent of total Sia, total homogenate (TH) (Caco-2 cells [4]): 58%
Neu5Gc incorporation into membrane-bound glycoconjugates without inhibitor (percent of total Sia) (Caco-2 cells [5]): 45%
percent of Neu5Gc in membrane-bound glycoconjugates [6]: 16%
Neu5Gc as percent of total Sia, membrane-bound fraction (Caco-2 cells [7]; no added Neu5Ac): 41%
Neu5Gc as percent of total Sia, TH (Caco-2 cells [7]; no added Neu5Ac (baseline incorporation)): 56%
Neu5Gc incorporation efficiency [8]: efficiency comparable to the Caco-2 cells
